“Also recorded” adds a separate entry of the source.
Tested on: macrophages
Test: IL-4-induced macrophage fusion (fusion index)
Type: cell-based, mouse
Protocol: To test the rates of cell fusion on the above described glass slides with a pattern surface, monocytes or macrophages are collected according to standard protocols and applied to hydrocarbon chain surface. After 30 minutes, the cultures are washed 3 times rapidly with phosphate-buffered saline to remove unbound cells, and complete cell culture medium (DMEM:F12, 10% FBS, 1% antibiotics) is applied to the culture for about 2 hours. After about 2 hours, about 10 ng/ml of interleukin-4 is applied to the culture to induce fusion and the culture is incubated until the respective time point.
Macrophages were isolated from the mouse peritoneum 72 hr after injection of a sterile 4% solution of Brewer's thioglycollate (Sigma Aldrich, St. Louis, Mo.). […] Immediately following euthanasia, 5 mL of an ice-cold solution of phosphate-buffered saline (PBS, pH 7.4) supplemented with 5 mM EDTA was injected aseptically into the peritoneum, the lavage containing cells was collected, and the cells were counted with a Neubauer hemocytometer. […]
Peritoneal lavage cells were applied to various surfaces at a concentration of 2,000 cells/mm2 and incubated in 5% CO2 at 37° C. for 30 min. […] The extent of MGCs formation was evaluated by determining the fusion index. […] Three to 5 bright field images collected at 20× objective magnification were analyzed per specimen.

**Q.** How did the “increase in fusion versus clean glass” value (adsorption onto clean glass) turn out when `CCCCCCCC/C=C\CCCCCCCC(N)=O` [oleamide] was run?
**A.** ~4 fold

**Q.** What about the “level of macrophage fusion” value (hydrocarbon deposited on optical-quality glass, IL-4 induced) of the same compound?
**A.** high-levels; also recorded: high levels
